Laboratory results as given in article PMC4749533, “Scintillation proximity assay (SPA) as a new approach to determine a ligand’s kinetic profile. A case in point for the adenosine A1 receptor” (Purinergic Signalling, 2015).

How the values were obtained:
Format in all cases: binding
[1] = target: T1, human adenosine A1 receptor (hA1R) (Homo sapiens, UniProt P30542); test: Radioligand displacement of [3H]-DPCPX, SPA technology; settings: CHO-hA1R membranes, one-state model
T1 construct: Steve Hill (University of Nottingham, UK); host or cells: CHO cells stably expressing hA1R; membrane preparation
T1 sequence (P30542 1-326): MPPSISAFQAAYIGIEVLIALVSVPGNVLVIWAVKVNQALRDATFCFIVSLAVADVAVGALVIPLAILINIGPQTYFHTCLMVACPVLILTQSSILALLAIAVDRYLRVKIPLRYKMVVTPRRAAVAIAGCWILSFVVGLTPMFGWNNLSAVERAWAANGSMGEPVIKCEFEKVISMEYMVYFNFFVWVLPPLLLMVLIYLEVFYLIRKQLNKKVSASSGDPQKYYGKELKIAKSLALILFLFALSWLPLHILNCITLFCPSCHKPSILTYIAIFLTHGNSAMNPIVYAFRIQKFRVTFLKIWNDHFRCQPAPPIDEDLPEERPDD
Procedure: (§2) Non-specific binding (NSB) was determined in the presence of 100 μM CPA. Each condition was measured in duplicate, and at least three individual experiments were performed.
A mixture of 5 μg protein membrane and 1 mg SPA bead was pre-coupled in a shaker (Vibrax VXR, IKA) in a volume of 50 μL of assay buffer at room temperature for 30 min. Then, together with the radioligand and competing ligands, the membrane-bead mixture was dispatched in an Isoplate-96 Microplate (Perkin Elmer, Groningen, the Netherlands), in a final reaction volume of 100 μL. The plate was incubated for 1 h inside the counting chamber of a 2450 MicroBeta^2 Plate Counter (Perkin Elmer, Groningen, the Netherlands) at the ambient temperature of 28 °C. The binding values were recorded in corrected counts per minute (CCPM).

[2] = target: T1, human adenosine A1 receptor (hA1R); test: Competition association with [3H]-DPCPX, SPA technology; settings: 28 °C, 1 mM GTP present for LUF5834, CCPA, NECA; for SPA RT: 1/k off
Procedure: (§1) The binding kinetics of unlabeled ligands was quantified using the competition association assay based on the theoretical framework by Motulsky and Mahan.
The membrane-bead mixture was prepared as described under “Radioligand displacement experiments.” Once the membrane-bead mixture was added to the wells of an Isoplate-96 Microplate, measurements of radioligand bound to the receptor were started immediately and continued every 30 s for 2 h, using the 2450 MicroBeta^2 Plate Counter.

[3] = target: T1, human adenosine A1 receptor (hA1R); test: Radioligand displacement of [3H]-DPCPX, filtration assay; settings: CHO-hA1R membranes, one-state model
Procedure: as §2
Membrane aliquots containing 5 μg protein were incubated together with the radioligand and competing ligands in a total volume of 100 μL assay buffer in a 96-well plate. After 1 h incubation at room temperature, the incubation was terminated by rapid vacuum filtration to separate the bound and free radioligand through 96-well GF/B filter plates using a PerkinElmer Filtermate-harvester (Perkin Elmer, Groningen, the Netherlands). Filters were subsequently washed three times with ice-cold wash buffer (50 mM Tris-HCl [pH 7.4], supplemented with 5 mM MgCl2). After 30 min of dehydration of the filter plate at 50 °C, the filter-bound radioactivity was determined by scintillation spectrometry using the 2450 MicroBeta^2 Plate Counter. The binding values were recorded in both counts per minute (CPM) and disintegrations per minute (DPM).

[4] = target: T1, human adenosine A1 receptor (hA1R); test: Competition association with [3H]-DPCPX, filtration assay; settings: 28 °C, 1 mM GTP present for LUF5834, CCPA, NECA; for Filtration assay RT: 1/k off
Procedure: as §1
The competition association assay was initiated by adding membrane aliquots (5 μg per well) at different time points for a total of 2 h in the absence or presence of competing ligand.

Row | Structure (SMILES) | Ki [1] [nM] | SPA RT [2] [min] | SPA k off (k4) ([2]; […] [3H]-DPCPX) [s⁻¹] | SPA k on (k3) ([2]; […] [3H]-DPCPX) [M⁻¹ s⁻¹] | Kd ([2]; k off/k on, read-out: SPA Kinetic K D) [nM] | Ki [3] [nM] | Filtration assay RT [4] [min] | Filtration assay k off (k4) ([4]; […] [3H]-DPCPX) [s⁻¹] | Filtration assay k on (k3) ([4]; […] [3H]-DPCPX) [M⁻¹ s⁻¹] | Kd ([4]; k off/k on, read-out: Filtration assay Kinetic K D) [nM]
1 | N#Cc1c(N)nc(SCc2ncc[nH]2)c(C#N)c1-c1ccc(O)cc1 [LUF5834] | 6.2 ± 0.5 | 2.0 ± 0.1 | 0.00833 ± 0.00083 | 2.17e+06 ± 830000 | 3.9 ± 1.5 | 4.3 ± 0.6 | 4.4 ± 0.5 | 0.00383 ± 0.0005 | 1.03e+06 ± 100000 | 3.7 ± 0.5
2 | OC[C@H]1O[C@@H](n2cnc3c(NC4CCCC4)nc(Cl)nc32)[C@H](O)[C@@H]1O [CCPA, 2-chloro-N^6-cyclopentyladenosine] |  | 1.4 ± 0.1 |  |  |  |  | 0.68 ± 0.01 |  |  | 
3 | CCCn1c(=O)c2[nH]c(C3CCCC3)nc2n(CCC)c1=O [DPCPX, 1,3-Dipropyl-8-cyclopentyl-xanthine] |  | 2.0 ± 0.1 |  |  |  |  | 3.7 ± 0.4 |  |  | 
4 | CCCn1c(=O)c2[nH]c(C3CCCC3)nc2n(CCCOC(=O)c2ccc(S(=O)(=O)F)cc2)c1=O [FSCPX, 8-cyclopentyl-3-N-[3-((3-(4-fluorosulphonyl)benzoyl)-oxy)-propyl]-1-N-propyl-xanthine] |  | 156 ± 31 |  |  |  |  | 167 ± 56 |  |  | 
